Results taken from patent US20170296611A1, “Pharmaceutical Compositions Comprising Extracts of Sarcopoterium Spinosum, Components Thereof, and Uses Thereof” (Diabest Botanical Drugs Ltd., priority 2009, published 2017).

Legend:
Type in all cases: cell-based
3T3-L1 adipocytes = assay: Free fatty acid release (lipolysis) assay in 3T3-L1 adipocytes
Experimental: 3T3-L1 pre-adipocytes were cultured and differentiated as described in references 8 as well as 16, 19, 20 and 21. Briefly, cells were grown to confluence in Dulbecco's Modified Eagle's Medium (DMEM) containing 10% fetal calf serum (FCS), 2 mM glutamine and 1% ampicillin. Two days after full confluence, the cells were induced to differentiate by 3 days incubation in DMEM containing 10% FCS, 0.5 mM isobutylmethylxanthine (IBMX), 1 μM dexamethasone and 100 nM insulin. This was followed by 2 days of incubation in DMEM containing 10% FCS and 100 nM insulin. The cells were grown for an additional 5-9 days in DMEM containing 10% FCS. […] Differentiated adipocytes were preincubated for 12 hours in DMEM containing 2% fatty acid-free bovine serum albumin, in the absence of FCS. Lipolysis was stimulated by treating cells with 10 μM isoproterenol for 1 hour, in the absence or presence of insulin (100 nM) or a composition (S. spinosum extract diluted to 0.001-1% V/V). Free fatty acids (FFA) released into the culture media were measured immediately using a NEFA-C kit, according to the kit instructions. Lipolysis was induced using the adrenergic agonist isoproterenol in order to analyze the extract's effect on lipolysis, and the effect of compositions comprising S. spinosum extract on isoproterenol-induced lipolysis measured, with insulin as a positive control. Differentiated adipocytes (3T3-L1) were treated with insulin (100 nM) or a composition comprising 1% (V/V) S. spinosum extract with or without the addition of isoproterenol (10 μM) for 60 min. Free fatty acid (FFA) concentration was measured […].

[1] = system: GSK3β ser-9 phosphorylation; assay: GSK3β phosphorylation in L6 myotubes (Western blot / ELISA); conditions: insulin 100 nM, 20 min
Experimental: L6 myoblasts were grown in MEM-α containing 25 mM glucose, 10% FCS, 2 mM glutamine and 1% ampicillin. Experiments were performed on differentiated myotubes. In order to induce differentiation, myoblasts were incubated in MEM-α containing 25 mM glucose and 2% FCS for 4 days, followed by an additional 24 h incubation in a MEM-α starvation medium containing 5 mM glucose and 2% FCS. AML-12, a nontransformed hepatocyte cell line were maintained in DMEM containing 25 mM glucose, 10% FCS, 2 mM glutamine and 1% ampicillin. […] Protein lysates were prepared using cell extraction buffer supplemented with protease and phosphatase inhibitors. The samples were homogenized and centrifuged at 14,000 rpm for 20 min. The supernatant was collected and protein concentration was measured using the Bradford method. 20 μg protein per lane was separated by SDS-polyacrylamide gel electrophoresis. Proteins were electrophoretically transferred onto nitrocellulose membranes. The membranes were blocked in 10% dry milk, incubated with the appropriate antibodies and immunodetected using the enhanced chemiluminescence method. Differentiated L6 myotubes were treated with 100 nM insulin or composition (S. spinosum extract diluted to 0.1% V/V) for 20 min. Protein lysates were prepared using cell extraction buffer. […] GSK-3β phosphorylation was measured using the ELISA detection kit. […]

[2] = system: AML12 hepatocyte cell line; assay: [3H]2-deoxy-D-glucose uptake in hepatocytes; conditions: insulin 100 nM
Experimental: (§1) L6 myoblasts were grown in MEM-α containing 25 mM glucose, 10% FCS, 2 mM glutamine and 1% ampicillin. Experiments were performed on differentiated myotubes. In order to induce differentiation, myoblasts were incubated in MEM-α containing 25 mM glucose and 2% FCS for 4 days, followed by an additional 24 h incubation in a MEM-α starvation medium containing 5 mM glucose and 2% FCS. AML-12, a nontransformed hepatocyte cell line were maintained in DMEM containing 25 mM glucose, 10% FCS, 2 mM glutamine and 1% ampicillin. Differentiated adipocytes, L6 myoblasts and AML12 cells were each preincubated for 6 hours in low glucose (4.5 mM), serum-free DMEM containing 1% BSA, and then treated with either 100 nM insulin or compositions comprising different concentrations of S. spinosum extract (0.001-1% V/V). Glucose uptake was measured in triplicate samples in six-well plates using [^3H]2-deoxy-D-glucose (1 mCi/ml; American Radiolabeled Chemicals, St. Louis, Mo., USA). […] Samples were counted in the ^3H window of a Tricarb scintillation counter. […] The effect of S. spinosum compositions on glucose uptake was measured in the AML12 hepatocyte cell line, L6 skeletal myoblasts and in differentiated 3T3-L1 adipocytes, and compared to the effect of insulin. […] The uptake of [^3H]2-deoxy-D-glucose into cells was determined as described in the Materials and Methods section.

L6 myoblasts = assay: [3H]2-deoxy-D-glucose uptake in L6 myoblasts; conditions: insulin 100 nM
Experimental: as §1

[3] = system: differentiated 3T3-L1 adipocytes; assay: [3H]2-deoxy-D-glucose uptake in 3T3-L1 adipocytes; conditions: insulin 100 nM
Experimental: 3T3-L1 pre-adipocytes were cultured and differentiated as described in references 8 as well as 16, 19, 20 and 21. Briefly, cells were grown to confluence in Dulbecco's Modified Eagle's Medium (DMEM) containing 10% fetal calf serum (FCS), 2 mM glutamine and 1% ampicillin. Two days after full confluence, the cells were induced to differentiate by 3 days incubation in DMEM containing 10% FCS, 0.5 mM isobutylmethylxanthine (IBMX), 1 μM dexamethasone and 100 nM insulin. This was followed by 2 days of incubation in DMEM containing 10% FCS and 100 nM insulin. The cells were grown for an additional 5-9 days in DMEM containing 10% FCS. […] Glucose uptake was measured in triplicate samples in six-well plates using [^3H]2-deoxy-D-glucose (1 mCi/ml; American Radiolabeled Chemicals, St. Louis, Mo., USA). […] Samples were counted in the ^3H window of a Tricarb scintillation counter. […] The effect of S. spinosum compositions on glucose uptake was measured in the AML12 hepatocyte cell line, L6 skeletal myoblasts and in differentiated 3T3-L1 adipocytes, and compared to the effect of insulin. […] The uptake of [^3H]2-deoxy-D-glucose into cells was determined as described in the Materials and Methods section.

Compound | free fatty acid release (lipolysis) (3T3-L1 adipocytes; isoproterenol 10 μM for one hour alone) [mM FFA/mg protein] | increase in GSK3β ser-9 phosphorylation compared to the control [1] [fold] | isoproterenol-induced free fatty acid release (3T3-L1 adipocytes; isoproterenol 10 μM, 60 min, insulin 100 nM) [mM FFA/mg protein] | free fatty acid release (3T3-L1 adipocytes; unstimulated adipocytes (no isoproterenol)) | increase in glucose uptake [2] [%] | increase in glucose uptake (L6 myoblasts) [%] | increase in glucose uptake [3] [%]
CC(C)NCC(O)c1ccc(O)c(O)c1 (stereo not shown) [isoproterenol, Isoproterenol, reference compound] | 4.23±3.01 | – | – | – | – | – | –
insulin | – | 4 | 0.47±0.16 | not affected | 160±12 | 146±11.26 | 167±13
